Earlier results on one compound are cited in paper PMC9063988 (JACS Au, 2022).

The data set deals with uptake of ETP transporter 21 into HeLa Kyoto cells.

Turning to `O[C@H](CS)[C@@H](O)CS` [DTE, 1,4-Dithioerythritol], the “inhibition of thiol-mediated uptake” value was “fail to inhibit”.
